Data set [1] has as its target Replicase polyprotein 1ab (Severe acute respiratory syndrome coronavirus 2, UniProt P0DTD1). In words: biochemical.
Data set [2] can be described thus: Cytotoxicity against African green monkey Vero E6 cells incubated for 48 hrs by neutral red uptake assay. The format is toxicity, cell-based, Vero C1008. The following applies: chlorocebus sabaeus.
Data set [3] is described as follows: Metabolic stability in mouse liver microsomes assessed as intrinsic clearance at 1 uM measured upto 60 mins in presence of NADPH regenerating system by LC-MS/MS analysis. It is filed as ADME, Microsome. The following applies: read-out: CLH. Background: Liver microsomes are vesicles of endoplasmic reticulum, rich in cytochrome P450 enzymes.
The conditions of data set [4]: mouse, microsomes, 1 h, 1 µM.
Data set [5] deals with Replicase polyprotein 1ab (Severe acute respiratory syndrome coronavirus 2) (UniProt P0DTD1). The following applies: BetaCoV/Wuhan/WIV04/2019, dose 40.0 µM, time 30.0 min.
The nature of another data set: in vitro. The settings on record: mouse, liver microsomes.

Calls of active or inactive are those of the source. The rule behind the calls is not given here.

As usually defined, the IC50 is the concentration that gives 50% inhibition. As usually defined, the CC50 is the concentration giving 50% cytotoxicity. The half-life is the time in which the quantity being followed falls by half.

In the case of `Cc1ccc(OCCN)cc1C(=O)N[C@H](C)c1cccc(-c2ccc(CNC3CC3)s2)c1`, the IC50 in data set [1] was 0.94 µM.

`Cc1ccc(OCCN)cc1C(=O)N[C@H](C)c1cccc(-c2cccs2)c1`: the 50% cytotoxic concentration (CC50) at 48 h in data set [2] was determined as 15.2 µM. For the same compound, in data set [3], the microsomal CLint at 1 µM was less than 9.6 µL/min/mg. In addition, the t1/2 in data set [4] is greater than 2.42 h.

Regarding `C[C@H](c1cccc2ccccc12)N(C)Cc1ccc(O)cc1O`, in data set [2], half-maximal cytotoxicity (CC50 at 48 h) was put at 31.5 µM. Further, the outcome in data set [5] was Active.

Turning to `C[C@H](c1cccc2ccccc12)N(C)Cc1ccc2[nH]ncc2c1`, the CC50 at 48 h in data set [2] came out at 35.5 µM.

For `Cc1ccc(OCCN)cc1C(=O)N[C@H](C)c1cccc(-c2cnn(C)c2)c1`, the IC50 in data set [1] is 0.96 µM.

In turn, `C[C@H](c1cccc2ccccc12)N(C)Cc1c[nH]c2ccccc12` yielded a CC50 at 48 h in data set [2] of 24.7 µM.

`Cc1ccc(OCCN)cc1C(=O)N[C@H](C)c1cccc(-c2ccc(C#N)cc2)c1` came in with an IC50 in data set [1] of 0.89 µM.

In turn, `Cc1ccc(OCCN)cc1C(=O)N[C@H](C)c1cccc(-c2cnn(Cc3ccccc3)c2)c1` gave an IC50 in data set [1] of 1.03 µM.

With `Cc1ccc(OCCN)cc1C(=O)N[C@H](C)c1cccc2ccccc12`, the microsomal CLint at 1 µM in data set [3] was less than 9.6 µL/min/mg. The t1/2 in data set [4] is greater than 2.42 h.

In the case of `C[C@H](c1cccc2ccccc12)N(C)Cc1ccc2cn[nH]c2c1`, it took 28.3 µM to reach half-maximal cytotoxicity in data set [2] (CC50 at 48 h).

In the case of `Cc1ccc(OCCN)cc1C(=O)N[C@H](C)c1cccc(-c2ccoc2)c1`, in data set [2], the CC50 at 48 h turned out to be 103 µM. The result in data set [5] was Active. For the same compound, the microsomal CLint at 1 µM in data set [3] was 25.7 µL/min/mg. In data set [4], this compound had a t1/2 of 0.897 h.

In data set [2], `C[C@H](c1cccc2ccccc12)N(C)Cc1c[nH]c2cc(F)ccc12` returned a CC50 at 48 h of 31.8 µM.

As to `C[C@H](c1cccc(-c2ccc(CN3CCCC3)s2)c1)N(C)Cc1cccc2[nH]ccc12`, the IC50 in data set [1] is 3.39 µM.

For `Cc1ccc(NC2CNC2)cc1CN(C)[C@H](C)c1cccc2ccccc12`, the CC50 at 48 h in data set [2] amounted to 13.7 µM. For the same compound, the microsomal CLint at 1 µM in data set [3] turned out to be 13.8 µL/min/mg. The same compound displayed a t1/2 in data set [4] of 1.673 h.

`Cc1ccc(OCCN)cc1C(=O)N[C@H](C)c1cccc(-c2ccn(C)c2C)c1` yielded an IC50 in data set [1] of 3.35 µM.

Regarding `C[C@H](c1cccc(-c2ccc(CN3CCCC3)s2)c1)N(C)Cc1ccc2[nH]ncc2c1`, the midpoint of inhibition in data set [1], the IC50, lay at 7.09 µM.

Regarding `Cc1ccc(OCCN)cc1C(=O)N[C@H](C)c1cccc(-c2ccc3c(c2)CCO3)c1`, the IC50 in data set [1] was 1.08 µM.

The compound `C[C@H](c1cccc2ccccc12)N(C)Cc1ccc(O)cc1` had a CC50 at 48 h in data set [2] of 23.7 µM. The microsomal CLint at 1 µM in data set [3] worked out at 779 µL/min/mg. Besides, the half-life at 1 h, 1 µM in “in vitro” turned out to be 1.8 min.

In data set [1], `Cc1ccc(OCCN)cc1C(=O)N[C@H](C)c1cccc(-c2ccc(F)cc2)c1` showed an IC50 of 1.22 µM.

Consider `Cc1ccc(OCCN)cc1C(=O)N[C@H](C)c1cccc(-c2ccc(C#N)s2)c1`, for which the CC50 at 48 h in data set [2] stood at 15 µM.

`COCCn1cc(-c2cccc([C@@H](C)NC(=O)c3cc(OCCN)ccc3C)c2)cn1` showed an IC50 in data set [1] of 1.51 µM.

As for `Cc1ccc(OCCN)cc1C(=O)N[C@H](C)c1cccc(-c2ccccc2O)c1`, it took 2.25 µM to reach half-maximal inhibition in data set [1] (IC50).

`Cc1ccc(OCCN)cc1C(=O)N[C@H](C)c1cccc(-c2ccc(F)cc2F)c1` gave an IC50 in data set [1] of 1.54 µM.

As to `C[C@H](c1cccc(-c2cccs2)c1)N(C)Cc1c[nH]c2ccc(F)cc12`, the IC50 in data set [1] was 2.66 µM.

Turning to `Cc1ccc(OCCN)cc1C(=O)N[C@H](C)c1cccc(-c2c(C)noc2C)c1`, in data set [1], the IC50 came to 1.48 µM.

In data set [1], `Cc1ccc(OCCN)cc1C(=O)N[C@H](C)c1cccc(-c2ccc3c(c2)OCCO3)c1` registered an IC50 of 0.97 µM.

In turn, `Cc1ccc(OCCN)cc1C(=O)N[C@H](C)c1cccc(-c2ccsc2)c1` gave a CC50 at 48 h in data set [2] greater than 30 µM. Also, the microsomal CLint at 1 µM in data set [3] amounted to 11.8 µL/min/mg. Besides, in data set [4], the t1/2 turned out to be 1.958 h.

Consider `Cc1ccc(O)cc1CN(C)[C@H](C)c1cccc2ccccc12`, for which, in data set [2], the CC50 at 48 h came out at 14.4 µM. Also, the microsomal CLint at 1 µM in data set [3] stood at 2490 µL/min/mg.

As for `Cc1ccc(OCCN)cc1C(=O)N[C@H](C)c1cccc(-c2cnc(N(C)C)nc2)c1`, the IC50 in data set [1] was greater than 20 µM.

`C[C@H](c1cccc(-c2cccs2)c1)N(C)Cc1c[nH]c2cc(F)ccc12` showed an IC50 in data set [1] of 2.34 µM.

In data set [1], `Cc1ccc(OCCN)cc1C(=O)N[C@H](C)c1cccc(-c2cn[nH]c2)c1` registered an IC50 of 1.49 µM.

Turning to `Cc1ccc(OCCN)cc1C(=O)N[C@H](C)c1cccc(-c2c[nH]nc2C)c1`, in data set [1], the IC50 was 1.96 µM.

As to `C[C@H](c1cccc(-c2cccs2)c1)N(C)Cc1ccc2cn[nH]c2c1`, in data set [1], the IC50 was determined as 2.36 µM.

On to `COc1cc(O)ccc1CN(C)[C@@H](C)c1cccc(-c2ccc(CN3CCCC3)s2)c1`, for which the IC50 in data set [1] amounted to 3 µM.

`Cc1ccc(OCCN)cc1C(=O)N[C@H](C)c1cccc(-c2ccc(O)cc2)c1` came in with a CC50 at 48 h in data set [2] of 45.2 µM. Also, in data set [3], the microsomal CLint at 1 µM is 24 µL/min/mg. In data set [4], this compound yielded a t1/2 of 0.962 h.

For the compound `C[C@H](c1cccc(-c2cccs2)c1)N(C)Cc1ccc(O)cc1O`, inhibition in data set [1] was half-maximal at 5.03 µM (IC50).

Regarding `Cc1ccc(OCCN)cc1C(=O)N[C@H](C)c1cccc(-c2ccn[nH]2)c1`, in data set [1], the 50% inhibitory concentration (IC50) was found to be 1.16 µM.

For the compound `C[C@H](c1cccc2ccccc12)N(C)Cc1c[nH]c2ccc(F)cc12`, in data set [2], the CC50 at 48 h stood at 32.5 µM.

For the compound `Cc1ccc(OCCN)cc1C(=O)N[C@H](C)c1cccc(-c2ccnn2C)c1`, in data set [1], the IC50 amounted to 2.78 µM.

In the case of `COc1cc([N+](=O)[O-])ccc1CN(C)[C@H](C)c1cccc2ccccc12`, the 50% cytotoxic concentration (CC50) at 48 h in data set [2] is greater than 100 µM. Besides, the outcome in data set [5] was Active.

The compound `Cc1ccc(OCCN)cc1C(=O)N[C@H](C)c1cccc(-c2cnn(C(F)F)c2)c1` showed an IC50 in data set [1] of 1.14 µM.

Source of the values: ChEMBL document CHEMBL5528015, “Structure-based design of SARS-CoV-2 papain-like protease inhibitors” (Eur J Med Chem, 2024).
